Reference: US20190387748A1, “COMPOSITIONS AND RELATED METHODS FOR AGRICULTURE” (priority 2017, published 2019)
“Also recorded” adds a separate entry of the source.

Columns and labels:
[1] = test system: Acyrthosiphon pisum aphids; assay: Aphid body area (size) measurement; assay type: in vivo; conditions: 10 or 100 uM pantothenol, through plants; by 3 days post-treatment
Method: For adult aphids, new nymphs were counted daily and then discarded. At the end of the experiments, fecundity was determined as the mean number of offspring produced daily once the aphid reached adulthood. Pictures of aphids were taken throughout the experiment to evaluate size differences between treatment groups.
Each treatment group received approximately the same number of individuals from each of the collection plant. For each treatment, 20 aphids were placed onto each leaf. Aphids were monitored daily for survival and dead aphids were removed when they were discovered. In addition, the developmental stage (1st, 2nd, 3rd, 4th, 5th instar, and 5R, representing a reproducing 5th instar) was determined daily throughout the experiment. […]
For adult aphids, new nymphs were counted daily and then discarded. At the end of the experiments, fecundity was measured in two ways: 1) the mean day at which the first offspring for the treatment group was determined and 2) the mean number of offspring produced daily once the aphid reached adulthood. […]
Aphids LSR-1 (which harbor only Buchnera), Acyrthosiphon pisum were grown on fava bean plants (Vroma vicia faba from Johnny's Selected Seeds) in a climate-controlled incubator (16 h light/8 h dark photoperiod; 60±5% RH; 25±2° C.). […] Aphids were monitored daily for survival and dead aphids were removed from the deep petri dish when they were discovered. […]

[2] = test system: Acyrthosiphon pisum aphids; assay: Aphid developmental stage monitoring; assay type: in vivo
Method: (§1) In addition, the developmental stage (1st, 2nd, 3rd, 4th, 5th instar) was determined daily throughout the experiment. Once an aphid reached the 4th instar stage, they were given their own artificial feeding system in a deep petri dish so that fecundity could be monitored once they reached adulthood.
Each treatment group received approximately the same number of individuals from each of the collection plant. For each treatment, 20 aphids were placed onto each leaf. Aphids were monitored daily for survival and dead aphids were removed when they were discovered. In addition, the developmental stage (1st, 2nd, 3rd, 4th, 5th instar, and 5R, representing a reproducing 5th instar) was determined daily throughout the experiment. Pictures of aphids were taken throughout the experiment to evaluate size differences between treatment groups.
(Vroma vicia faba from Johnny's Selected Seeds) in a climate-controlled incubator (16 h light/8 h dark photoperiod; 60±5% RH; 25±2° C.). Prior to being used for aphid rearing, fava bean plants were grown in potting soil at 24° C. with 16 h of light and 8 h of darkness. To limit maternal effects or health differences between plants, 5-10 adults from different plants were distributed among 10 two-week-old plants, and allowed to multiply to high density for 5-7 days. […] Aphids were monitored daily for survival and dead aphids were removed from the deep petri dish when they were discovered. In addition, the developmental stage (1st, 2nd, 3rd, 4th, 5th and 5R (5th that has reproduced) instar) was determined daily throughout the experiment.
In addition, the developmental stage (1st, 2nd, 3rd, 4th, 5th, and 5R (5th that has reproduced) instar) was determined daily throughout the experiment.
In addition, the developmental stage (1st, 2nd, 3rd, 4th, 5th, and 5R (5th instar aphids that are reproducing) instar) was determined daily throughout the experiment.
In addition, the developmental stage (1st, 2nd, 3rd, 4th, and 5th instar) was determined daily throughout the experiment.
as §1, with “5th, and 5R (5th that has reproduced)” for “5th”
For each treatment, 30 aphids were placed onto each leaf in triplicate. […] Aphids were monitored daily for survival and dead aphids were removed from the deep petri dish when they were discovered. In addition, the developmental stage (1st, 2nd, 3rd, 4th, 5th, and 5R (5th instar aphids that are reproducing) instar) was determined daily throughout the experiment. […]

Compound: CC(C)(CO)[C@@H](O)C(=O)NCCCO [pantothenol]
- Aphid area (body size) [1]: drastic effect of pantothenol treatment; also recorded: smaller in area than untreated controls
- Aphid development ([2]; eNASCO 1st and 2nd instar, 10 or 100 uM pantothenol in artificial diet without essential amino acids, through plants): delayed aphid development; also recorded: Development was delayed
- Aphid development ([2]; eNASCO first instar, leaf coating, 100 μl of 10 uM pantothenol in 0.025% Silwet L-77): did not affect aphid development; also recorded: matured at similar rates up to two days post-treatment
